# Columns and labels:
# hESCs = experiment: Cell colony and morphology under bright field, hESCs; format: cell-based, human; details: 2.5 μM, 12 hours and 24 hours
# Description: Scale bar: 500 μm. […] The samples were normalized to the DMSO-treated hESCs. ***P<0.001; **P<0.01; n.s. not significant. Data are shown as the mean SD.
# We investigated whether cardiac glycosides affected the viability of hESCs or other cell types. First, we treated undifferentiated hESCs with digoxin and lanatoside C for 12 hours and 24 hours, respectively. […] To investigate the cytotoxic effect of the cardiac glycosides, we measured the release of LDH in the culture supernatants after the hESCs were treated with digoxin or Lanatoside C for 24 hours (FIG. 1C).
# H9 hESC-MSCs = experiment: Cell morphology under bright field, H9 hESC-MSCs; format: cell-based, human; details: 2.5 μM, 12 hours and 24 hours
# Nanog in hESCs = experiment: Western blot of pluripotent stem cell marker Nanog, hESCs; format: cell-based, human; details: 2.5 μM, 12 hours
# Description: RIPA buffer was used to harvest cell lysates (RIPA buffer: NaCl 150 mM, Tris pH 8.0 50 mM, EDTApH 8.0 5 mM, NP-40 1.0%, SDS 0.5%, sodium deoxycholate 0.1%). Western blot analyses were performed as previously described with different types of primary antibodies^29. The primary antibody includes anti-β-actin (A5441; Sigma), anti-Oct4 (sc-9081; Santa Cruz Biotechnology, Santa Cruz, CA, USA), anti-Nanog (3580; Cell Signaling Technology, Danvers, MA, USA), apoptosis antibody kit (9915; Cell Signaling Technology), ATP1A1 (3010; Cell Signaling Technology), and ATP1A2 (16836-1-AP; Proteintech™) were used. After reaction at 4° C. overnight, the blots were incubated with goat anti-mouse- or goat anti-rabbit antibody conjugated with horseradish peroxidase (Jackson ImmunoResearch Inc). The chemiluminescent substrate (WBKLS0500; Millipore, Darmstadt, Germany) was used to detect the blots. Fujifilm LAS-4000 (FUJIFILM, Tokyo, Japan) was used to take the images.
# [1] = test system: hiPSC-derived endothelial cells; experiment: LDH cytotoxicity assay in hiPSC-derived endothelial cells; format: cell-based, human; details: 2.5 μM, 24 hours
# Description: The released LDH was measured using CytoTox 96 Non-Cytotoxicity assay according to the manufacture's instruction (Promega, Southampton, UK). The supernatants and reagents were incubated at room temperature for 20 minutes and then the reaction was stopped by Stop Solution. The absorbance at 490 nm was measured using a plate-reading spectrophotometer (Benchmark Plus Microplate Spectrophotometer System, BIO-RAD, CA, USA).
# hBMMSCs = experiment: Chondrogenic induction and Alcian blue assay; format: cell-based, human; details: 2.5 μM 24 hours, drug removed; Alcian blue O.D 650 nm
# Description: Next, drugs were removed, and 1×10^5 cells were seeded in 96-well U-bottom culture plated. After 24 hours, we changed the complete MSCgo™ Chondrogenic medium (Biological Industries) for 21 days. The media were changed every 3-4 days. Next, the pelleted cells were fixed with 4% formaldehyde for 1 hours, washed twice with ddH2O, and stained with a 1% Alcian blue solution in 0.1N HCl for 30 min. For Alcian Blue elution, we added […] Guanidine HCL solution and incubated overnight at RT. The absorbance at 650 nm was detected.
# [2] = test system: mixture of hESCs and GFP-overexpressing hBMMSCs; experiment: Kidney capsule transplantation of treated hESCs and hBMMSCs; format: in vivo; details: drug-treated hESCs and hBMMSCs under the kidney capsule, NSG mice, five weeks
# Description: The 293T cells were seeded with 10^6 cells in 6-well plates for the generation of the lentivirus. After 24 hours, the 293T cells were transfected with 1 μg of pLKO_AS3w.eGFP.bsd, 0.9 μg of pCMVR8.91, and 0.1 μg of pMD.G (National RNAi Core Facility, Taipei, Taiwan) via the TurboFect transfection reagent (Thermo Fisher Scientific). At 24 hours after the transfection, the medium was refreshed with the virus harvest medium, which contained HG-DMEM, 10% FBS and 1% BSA. The hBMMSCs were seeded in 6-well plates and later incubated with the lentivirus (multiplicity of infection=10) for one day. The cells were selected with 10 μg/ml blasticidin (Thermo Fisher Scientific) the following day. The GFP overexpressing hBMMSCs were then isolated using a cell sorter (FACS Aria™ II, BD Biosciences) and cultured in a medium containing 10 μg/ml blasticidin for the following experiments.
# Mixtures of approximately 8×10^5 hESCs and 8×10^5 hBMMSCs were injected under the kidney capsules into 6-week-old male NSG mice. Five weeks after the transplantation, the animals were sacrificed, and the tissues were removed, fixed in 10% formalin, embedded in paraffin, stained with H&E or were subjected to IHC staining. The staining protocols were described in the materials and method section. Chicken anti-GFP (ab 13970, Abcam, Cambridge, MA, USA) antibody was used for the GFP overexpressing hBMMSCs IHC staining.
structure (smiles),measurement,setting,value
"C[C@H]1O[C@@H](O[C@H]2[C@@H](O)C[C@H](O[C@H]3[C@@H](O)C[C@H](O[C@H]4CC[C@@]5(C)[C@H](CC[C@@H]6[C@@H]5C[C@@H](O)[C@]5(C)[C@@H](C7=CC(=O)OC7)CC[C@]65O)C4)O[C@@H]3C)O[C@@H]2C)C[C@H](O)[C@@H]1O [Digoxin, digoxin]",cell death (bright field morphology) in hESCs,hESCs,induced dramatic cell death
same,cell death (bright field morphology) in H9 hESC-MSCs,H9 hESC-MSCs,Neither digoxin (2.5 μM) nor lanatoside C (2.5 μM) induced cell death
same,protein levels of Nanog in hESCs,Nanog in hESCs,downregulated
same,survival of hiPSC-derived endothelial cells (LDH release),[1],remained alive
same,differentiation ability of hBMMSCs into chondrocytes,hBMMSCs,neither digoxin nor lanatoside C affected the differentiation ability
same,tumor area of kidney tissue,[2],significantly inhibited
"CC(=O)O[C@H]1C[C@H](O[C@H]2[C@@H](O)C[C@H](O[C@H]3[C@@H](O)C[C@H](O[C@H]4CC[C@@]5(C)[C@H](CC[C@@H]6[C@@H]5C[C@@H](O)[C@]5(C)[C@@H](C7=CC(=O)OC7)CC[C@]65O)C4)O[C@@H]3C)O[C@@H]2C)O[C@H](C)[C@H]1O[C@@H]1O[C@H](CO)[C@@H](O)[C@H](O)[C@H]1O [Lanatoside C, lanatoside C]",cell death (bright field morphology) in hESCs,hESCs,induced dramatic cell death
same,cell death (bright field morphology) in H9 hESC-MSCs,H9 hESC-MSCs,Neither digoxin (2.5 μM) nor lanatoside C (2.5 μM) induced cell death
same,protein levels of Nanog in hESCs,Nanog in hESCs,downregulated
same,survival of hiPSC-derived endothelial cells (LDH release),[1],remained alive
same,differentiation ability of hBMMSCs into chondrocytes,hBMMSCs,neither digoxin nor lanatoside C affected the differentiation ability
same,tumor area of kidney tissue,[2],significantly inhibited
